Experiments:
[1] = background; without the whiteness-preserving ingredients; cited from earlier work
skin [2] = assay: Tanning of the skin after topical application; assay type: in vivo
Text: The tan will appear once it reaches the skin's cellular level whether a person is in the light or in total darkness.
The tanning process will continue, in the sun, in the shade, or total darkness, regardless of the environmental conditions. […] Also, the tan can be maintained for longer periods of time by daily use of a maintenance formula containing 3 wt % CoQ10 and 3 wt % vanillin in a lime emulsion.

skin [3] = details: known sunless tanning ingredients; acts on dead skin cells; cited from earlier work

COc1cc(C=O)ccc1O [vanillin]
color behaviour in aqueous emulsion products [1]: quickly degrades into various shades of brown
tanning / color development continues for up to (skin [2]): up to 24 hours

O=C(CO)[C@H](O)CO [erythrulose, D-erythrulose]
how long the tan color lasts (skin [3]): only a few days

COC1=C(OC)C(=O)C(C/C=C(\C)CC/C=C(\C)CC/C=C(\C)CC/C=C(\C)CC/C=C(\C)CC/C=C(\C)CC/C=C(\C)CC/C=C(\C)CC/C=C(\C)CCC=C(C)C)=C(C)C1=O [CoQ10, coenzyme Q10]
color behaviour in aqueous emulsion products [1]: degrades the formulation into various shades of orange or brown
